Read-outs that look alike come from different tables or passages of the source.
Experiments:
Format in all cases: cell-based, HIV-1
[1] = test system: recombinant virus from patient viral RNA (Example 8); test: Recombinant virus assay (MT4/MTT), patient of Example 8 (therapy history AZT, 3TC and loviride); conditions: for IC50: Human immunodeficiency virus 1, Table 4, Example 8 patient virus; for ratio (1)/(2): Table 4, patient mean IC50 / recIIIB IC50, Example 8
Experimental: (§1) RNA was isolated from 100 μl of plasma according to the method described by Boom, R. et al. (1990, supra), and was reverse transcribed with the GeneAmp reverse transcriptase kit (Perkin Elmer) as described by the manufacturer and using an HIV-1 specific downstream primer (OUT3: 5′-CATTGCTCTCCAATTACTGTGATATTTCTCATC-3′; SEQ ID NO: 1). PCR on reverse transcribed RNA was performed with inner and outer primers as described by Kellam, P. and Larder, B. A. (1994, supra). After chloroform extraction and centrifugation on Centricon 100 columns or centrifugation on anion-exchange spin columns (Quiagen), the isolated PCR product was ready for use in the transfection reactions.
(§2) MT4 cells were subcultured at a density of 250,000 cells/ml before transfection (exponential growth phase). Cells were pelleted and resuspended in phosphate buffered saline (PBS) at a concentration of […]. A 0.8 ml portion (2.5 10E6 cells/ml) was used for each transfection. Transfection was performed with the Bio-Rad Gene pulser making use of 0.4 cm electrode cuvettes. Cells were electroporated in the presence of […] of linearised pHIVΔRT plasmid and approximately 5 μg of RT PCR product at 250SF and 300 V, followed by a 30-min incubation at room temperature. Subsequently, 10 ml of fresh culture medium was added to the cell suspension and incubation was performed at 37° C. in a humidified atmosphere of 5% CO2.
(§3) During 7 to 10 days following the transfection, cells were monitored for the appearance of cytopathogenic effect (CPE). In the absence thereof, cells were subcultured in different flasks. Subsequently, culture supernatants of transfected cells were used to create a stock of recombinant virus and stored in 1.5 ml aliquots at −70° C.
(§4) After titration of the new viruses, the stocks were used for antiviral experiments in the presence of serial dilutions of different HIV inhibitors. Titres of the harvested supematants were determined by limited serial dilution titration of virus in MT4 cells.
(§5) Viruses with a useful titre were used in antiviral experiments. For this purpose, 96-well microtitre plates were filled with 100μl of complete culture medium. Subsequently, stock solutions of compounds were added in 25 μl volumes to series of duplicate wells. HIV- and mock-infected cell samples were included for each drug (or drug combination). Exponentially growing MT4 cells were then transferred to the microtitre plates at a density of 150,000 cells/ml. The cell cultures were then incubated at 37° C. in a humidified atmosphere of 5% CO2. Five days after infection, the viability of the mock- and HIV-infected cells was examined spectrophotometrically by the M1T method (Pauwels, R. et al. J. Virol. Meth. (1988), 20: 309-321) as described in Section 6 below.
(§6) To each well of the microtiter plates, 20 μl of a solution of MTT (7.5 mg/ml in PBS) was added. The plates were further incubated at 37° C. for 1 h. Then, 150 μl of medium was removed without disturbing the MT4 cell clusters containing the formazan crystals. Solubilization of the formazan crystals was achieved by adding 100 μl 5% Triton X-100 in acidified isopropanol (5 ml concentrated HCl per liter solvent). Complete dissolution of the formazan crystals was obtained after the plates had been placed on a plate shaker for 10 min. Finally the absorbances were read at two wavelengths (540 and 690 nm). From these optical density (OD) data, 50% inhibitory (IC50) and 50% cytotoxic (CC50) concentrations were derived.
An HIV-infected patient with a therapy history including AZT, 3TC and loviride donated plasma whose susceptibility to a number of RT inhibitors was determined according to the protocol set out in Example 1. Recombinant wild type HIV strain recIIIB was used as a reference HIV virus.

[2] = test system: recombinant virus from patient viral RNA (Example 5, 3TC resistant HIV strains); test: Recombinant virus assay (MT4/MTT), patient of Example 5 (AZT, then AZT+3TC therapy); conditions: for IC50: Human immunodeficiency virus 1, Table 1, Example 5 patient virus; for ratio (1)/(2): Table 1, patient mean IC50 / recIIIB IC50, Example 5
Experimental: as §1, §2, §3, §4, §5, §6
An HIV infected patient who received AZT from December 1989 until an undocumented later date, and switched to a combined chemotherapy of AZT+3TC (1:1) from February 1994 until October 1995 donated plasma whose susceptibility to a number of RT inhibitors was determined according to the above described protocol of Example 1. Recombinant wild type HIV strain recIIIB was used in said protocol as a reference HIV virus.

[3] = test system: recombinant virus from patient viral RNA (Example 7, drug-naive patient); test: Recombinant virus assay (MT4/MTT), drug-naive patient of Example 7; conditions: for IC50: Human immunodeficiency virus 1, Table 3, Example 7 patient virus; for ratio (1)/(2): Table 3, patient mean IC50 / recIIIB IC50, Example 7
Experimental: as §1, §2, §3, §4, §5, §6
A drug-naive HIV-infected patient donated plasma whose susceptibility to a number of RT inhibitors was determined according to the protocol set out in Example 1. Recombinant wild type HIV strain recIIIB was used as a reference HIV virus.

[4] = test system: recombinant virus from patient viral RNA (Example 9); test: Recombinant virus assay (MT4/MTT), patient of Example 9 (multiple nucleoside analogue RT-inhibitors); conditions: for IC50: Human immunodeficiency virus 1, Table 5, Example 9 patient virus; for ratio (1)/(2): Table 5, patient mean IC50 / recIIIB IC50, Example 9
Experimental: as §1, §2, §3, §4, §5, §6
An HIV-infected patient with a therapy history including multiple nucleoside analogue RT-inhibitors donated plasma whose susceptibility to a number of RT inhibitors was determined according to the protocol set out in Example 1. Recombinant wild type HIV strain recIIIB was used as a reference HIV virus.

[5] = test system: recombinant virus from patient viral RNA (Example 6, drug-naive patient); test: Recombinant virus assay (MT4/MTT), drug-naive patient of Example 6; conditions: for IC50: Human immunodeficiency virus 1, Table 2, Example 6 patient virus; for ratio (1)/(2): Table 2, patient mean IC50 / recIIIB IC50, Example 6
Experimental: as §1, §2, §3, §4, §5, §6
A drug-naive HIV infected patient donated plasma whose susceptibility to a number of RT inhibitors was determined according to the above described protocol of Example 1. Recombinant wild type HIV strain recIIIB was used in said protocol as a reference HIV virus.

[6] = test system: Recombinant wild type HIV strain recIIIB; test: Antiviral MT4/MTT assay with reference virus recIIIB; conditions: read-out: Anti-HIV-1 activity IC50 (μM) recIIIB ref (2)
[7] = MT4 cells, read-out: Anti-HIV-1 activity IC50 (μM) Exp. 1
[8] = MT4 cells, read-out: Anti-HIV-1 activity IC50 (μM) Exp. 2
[9] = mean, read-out: Anti-HIV-1 activity IC50 (μM) Mean (1)
[10] = mean of Exp. 1 and 2, read-out: Anti-HIV-1 activity IC50 (μM) Mean (1)
[11] = Human immunodeficiency virus 1, Table 1, reference run of Example 5
[12] = Human immunodeficiency virus 1, Table 2, reference run of Example 6
[13] = Human immunodeficiency virus 1, Table 3, reference run of Example 7
[14] = Human immunodeficiency virus 1, Table 4, reference run of Example 8
[15] = Human immunodeficiency virus 1, Table 5, reference run of Example 9

| SMILES | IC50 [1, 7] | IC50 [1, 8] | IC50 [1, 9] | ratio (1)/(2) [1] | IC50 [2, 7] | IC50 [2, 8] | IC50 [2, 10] | ratio (1)/(2) [2] | IC50 [3, 7] | IC50 [3, 8] | IC50 [3, 9] | ratio (1)/(2) [3] | IC50 [4, 7] | IC50 [4, 9] | ratio (1)/(2) [4] | IC50 [5, 7] | IC50 [5, 8] | IC50 [5, 10] | ratio (1)/(2) [5] | IC50 [6, 11] | also measured |
| --- | --- | --- | --- | --- | --- | --- | --- | --- | --- | --- | --- | --- | --- | --- | --- | --- | --- | --- | --- | --- | --- |
| Cc1cn([C@H]2C[C@H](N=[N+]=[N-])[C@@H](CO)O2)c(=O)[nH]c1=O [AZT, zidovudine] | 18.3 µM | 22.3 µM | 20.3 µM | 241 | 0.001 µM | 0.002 µM | 0.002 µM | 0.4 | 0.052 µM | 0.05 µM | 0.051 µM | 2 | > 100 µM | > 100 µM | >344 | 0.04 µM | 0.05 µM | 0.05 µM | 1 | 0.004 µM | IC50 [6, 12]: 0.06 µM; IC50 [6, 13]: 0.023 µM; IC50 [6, 14]: 0.084 µM; IC50 [6, 15]: 0.291 µM; IC50 ([6]; Human immunodeficiency virus 1, Table 6, reference run of Example 10): 0.041 µM; IC50 ([6]; Human immunodeficiency virus 1, Table 7, reference run of Example 11): 0.047 µM; IC50 ([6]; Human immunodeficiency virus 1, Table 8, reference run of Example 12): 0.041 µM |
| O=c1[nH]cnc2c1ncn2[C@H]1CC[C@@H](CO)O1 [ddI, didanosinen] | 26.9 µM | 15.4 µM | 21.1 µM | 13 | 2 µM | 0.8 µM | 1.4 µM | 0.5 | 0.475 µM | 0.429 µM | 0.452 µM | 0.7 | > 100 µM | > 100 µM | >21 | 3.07 µM | 4.47 µM | 3.77 µM | 0.4 | 2.83 µM | IC50 [4, 8]: > 100 µM; IC50 [6, 12]: 8.58 µM; IC50 [6, 13]: 0.648 µM; IC50 [6, 14]: 1.59 µM; IC50 [6, 15]: 4.76 µM |

Reference: patent US6528251B2, “Method of managing the chemotherapy of patients who are HIV positive based on the phenotypic drug sensitivity of human HIV strains” (Virco N.V., priority 1996, dated 2003)
